The text below walks through data of patent US20210352899A1, “COMPOSITIONS COMPRISING PYRIDINE CARBOXYLATE HERBICIDES AND FATTY ACID AND LIPID SYNTHESIS INHIBITOR HERBICIDES” (Corteva Agriscience LLC, priority 2018, published 2021).

What all share (format): in vivo
Data set [1] relates to Brassica napus (spring rape). The data set can be described thus: Greenhouse postemergence herbicidal effect, BRSNN. The source says:
(§1) Seeds of the desired test plant species were planted in a 90:10% v/v (volume/volume) mixture of PRO-MIX® BX (Premier Tech Horticulture, Quakertown, Pa., USA) and PROFILE® GREENS GRADE™ (Profile Products LLC, Buffalo Grove, Ill., USA) planting mixture, which typically has a pH of 5.2 to 6.2 and an organic matter content of at least 50 percent, in plastic pots with a surface area of 103.2 square centimeters (cm^2). In some aspects, to help ensure good germination and healthy plants, a fungicide treatment and/or other chemical or physical treatment was applied. The plants were grown for 7-36 days (d) in a greenhouse with an approximate 14-hour (h) photoperiod which was maintained at about 23° C. during the day and 22° C. during the night. Nutrients and water were added on a regular basis and supplemental lighting was provided with overhead metal halide 1000-Watt lamps as necessary. The plants were employed for testing when they reached the second or third true leaf stage.
(§2) Emulsifiable concentrates of each pyridine carboxylate herbicide (Compound A or Compound B) were prepared at 100 grams acid equivalent per liter (g ae/L). The emulsifiable concentrates also included a safener, cloquintocet-mexyl, at 120 grams active ingredient per liter (g ai/L). An aliquot of each emulsifiable concentrate was placed in a 25 mL glass vial and diluted with an aqueous mixture of 1.25% (v/v) ACTIROB® B esterified rapeseed oil (Bayer Crop Science, Research Triangle Park, N.C., USA) or MSO® Concentrate with LECI-TECH® methylated soybean oil (Loveland Products, Loveland, Colo., USA) to obtain concentrated stock solutions at the highest application rate for each herbicide, based upon a 12 milliliter (mL) application volume at a rate of 187 liters per hectare (L/ha). The concentrated stock solutions were further diluted with an aqueous mixture of 1.25% v/v ACTIROB® B or MSO® Concentrate with LECI-TECH® to obtain stock solutions at reduced application rates for each herbicide. Spray solutions of the herbicide combinations (Compound A or Compound B plus the FA/LSI herbicide) were prepared by adding weighed amounts or aliquots of the FA/LSI herbicide to the stock solutions of Compound A or Compound B to form 12-mL spray solutions in two-way combinations.
(§3) The spray solutions were applied to the plant material with an overhead Mandel track sprayer equipped with 8002E nozzles calibrated to deliver 187 L/ha over an application area of 0.503 square meters (m^2) at a spray height of 18 inches (43 centimeters (cm)) above the average plant canopy. Control plants were sprayed in the same manner with the solvent blank. All pyridine carboxylate herbicide (component a) application rates are given as “g ae/ha” and all FA/LSI herbicide (component b) application rates are given as “g ai/ha.”
(§4) The treated plants and control plants were placed in a greenhouse as described above and watered by sub-irrigation to prevent wash-off of the test compounds. After 20-22 d, the condition of the test plants as compared with that of the control plants was determined visually and scored on a scale of 0 to 100 percent where 0 corresponds to no injury and 100 corresponds to complete kill.

Data set [2] concerns Polygonum convolvulus (wild buckwheat). The data set can be described thus: Greenhouse postemergence herbicidal effect, POLCO.
Description: as §1, §2, §3, §4

Data set [3] has as its system Sinapis arvensis (wild mustard). The data set can be described thus: Greenhouse postemergence herbicidal effect, SINAR.
Description: as §1, §2, §3, §4

The subject of data set [4] is Salsola kali (Russian thistle). The data set can be described thus: Greenhouse postemergence herbicidal effect, SASKR.
Description: as §1, §2, §3, §4

Data set [5] deals with Kochia scoparia (kochia). The data set can be described thus: Greenhouse postemergence herbicidal effect, KCHSC.
Description: as §1, §2, §3, §4

Data set [6] deals with Amaranthus retroflexus (pigweed). The data set can be described thus: Greenhouse postemergence herbicidal effect, AMARE.
Description: as §1, §2, §3, §4

In data set [7] the test system is Chenopodium album L. (common lambsquarters). The data set can be described thus: Greenhouse postemergence herbicidal effect, CHEAL.
Description: as §1, §2, §3, §4

Data set [8] deals with Matricaria chamomilla (wild chamomile). The data set can be described thus: Greenhouse postemergence herbicidal effect, MATCH.
Description: as §1, §2, §3, §4

For data set [9], the system named is Triticum aestivum (spring wheat). In words: Greenhouse postemergence crop phytotoxicity, TRZAS.
Description: as §1, §2, §3, §4

Data set [10] deals with Hordeum vulgare (spring barley). The data set can be described thus: Greenhouse postemergence crop phytotoxicity, HORVS.
Description: as §1, §2, §3, §4

Data set [11] deals with Viola tricolor (wild pansy). The data set can be described thus: Greenhouse postemergence herbicidal effect, VIOTR.
Description: as §1
(§5) Emulsifiable concentrates of each pyridine carboxylate herbicide (Compound A or Compound B) were prepared at 100 grams acid equivalent per liter (g ae/L). The emulsifiable concentrates also included a safener, cloquintocet-mexyl, at 120 grams active ingredient per liter (g ai/L). […]
as §4

Data set [12] concerns Stellaria media (chickweed). The data set can be described thus: Greenhouse postemergence herbicidal effect, STEME.
Description: as §1, §5, §4

The subject of data set [13] is Lolium multiflorum (Italian ryegrass). The data set can be described thus: Greenhouse postemergence herbicidal effect, LOLMU.
Description: as §1, §5, §4

Data set [14] concerns Echinochloa crus-galli (barnyard grass). The data set can be described thus: Greenhouse postemergence herbicidal effect, ECHCG.
Description: as §1, §5, §4

Data set [15] deals with Digitaria sanguinalis (large crabgrass). The data set can be described thus: Greenhouse postemergence herbicidal effect, DIGSA.
Description: as §1, §5, §4

The test system of data set [16] is Cirsium arvense (Canada thistle). In words: Greenhouse postemergence herbicidal effect, CIRAR.
Description: as §1, §2, §3, §4

Data set [17] has as its system Setaria faberi (giant foxtail). In words: Greenhouse postemergence herbicidal effect, SETFA.
Description: as §1, §5, §4

Data set [18] concerns Glycine max (soybean). The data set can be described thus: Greenhouse postemergence herbicidal effect, GLXMA.
Description: as §1, §5, §4

Setting [19] is: Compound A 0, Benfuresate 150 g/ha.
The mark [20] stands for this setting: Compound A 7.5 g/ha, Benfuresate 0.
The mark [21] stands for this setting: Compound A 7.5 g/ha, Esprocarb 0.
Setting [22] is: Compound A 7.5 g/ha, Prosulfocarb 0.
Setting [23] is: Compound A 7.5 g/ha, Thiobencarb 0.
The mark [24] stands for this setting: Compound A 10 g/ha, Benfuresate 0.
Setting [25] is: Compound A 10 g/ha, Esprocarb 0.
[26] abbreviates: Compound A 10 g/ha, Prosulfocarb 0.
The mark [27] stands for this setting: Compound A 10 g/ha, Thiobencarb 0.
The mark [28] stands for this setting: Compound A 0, Esprocarb 420 g/ha.
The mark [29] stands for this setting: Compound A 0, Prosulfocarb 250 g/ha.
Setting [30] is: Compound A 0, Thiobencarb 1120 g/ha.

As to `CCS(=O)(=O)Oc1ccc2c(c1)C(C)(C)CO2` [Benfuresate, benfuresate, reference compound], the “% visual injury, Obs” value stood at 5% in data set [1] (setting [19]); 0% in [2] (setting [19]); 0% in data set [3] (setting [19]); 0% in data set [4] (setting [19]); 0% in [5] (setting [19]); 10% in data set [6] (setting [19]). The “% visual injury, Obs” value in data set [7] (setting [19]) and in data set [8] (setting [19]) was 0% each time.

As to `N#CCOC(=O)c1nc(-c2ccc3cc[nH]c3c2F)c(F)c(N)c1Cl` [Compound A, cyanomethyl 4-amino-3-chloro-5-fluoro-6-(7-fluoro-1H-indol-6-yl)pyridine-2-carboxylate], the “% visual injury, Obs” value in [1] (setting [20]) is listed as 55%; in data set [1] (setting [21]), 55%; in [1] (setting [22]), 73%; in data set [1] (setting [23]), 55%; in data set [1] (setting [24]), 60%; in data set [1] (setting [25]), 70%. Further, the “% visual injury, Obs” value turned out to be 83% in data set [1] (setting [26]); 60% in [1] (setting [27]); 70% in data set [2] (setting [20]); 75% in data set [2] (setting [22]); 70% in data set [2] (setting [23]); 78% in data set [2] (setting [24]). The “% visual injury, Obs” value in [2] (setting [26]) was found to be 70%; in data set [2] (setting [27]) it was 78%; in data set [3] (setting [20]), 88%; in data set [3] (setting [21]), 85%; in data set [3] (setting [23]), 88%; in data set [3] (setting [24]), 92%. Besides, the “% visual injury, Obs” value in data set [3] (setting [25]) was 90%; in data set [3] (setting [27]) it was 92%; in data set [4] (setting [20]) it was 45%; in [4] (setting [21]), 38%; in [4] (setting [23]) it was 45%; in data set [4] (setting [24]) it was 60%. For the same molecule, the “% visual injury, Obs” value in [4] (setting [25]) was 63%; in [4] (setting [27]), 60%; in data set [5] (setting [20]), 50%; in data set [5] (setting [21]), 50%; in data set [5] (setting [22]), 60%; in [5] (setting [23]) it was 50%. Further, the “% visual injury, Obs” value worked out at 58% in data set [5] (setting [24]); 55% in data set [5] (setting [25]); 65% in data set [5] (setting [26]); 58% in data set [5] (setting [27]); 100% in data set [6] (setting [20]); 70% in data set [6] (setting [21]). The “% visual injury, Obs” value in data set [6] (setting [23]) is 100%; in data set [6] (setting [24]) it was 100%; in data set [6] (setting [25]), 98%; in data set [6] (setting [27]) it was 100%; in data set [7] (setting [20]), 70%; in data set [7] (setting [21]), 60%. Besides, the “% visual injury, Obs” value in [7] (setting [22]) was 97%; in data set [7] (setting [23]), 70%; in data set [7] (setting [24]), 83%; in data set [7] (setting [25]), 90%; in data set [7] (setting [26]) it was 93%; in [7] (setting [27]) it was 83%. Moreover, the “% visual injury, Obs” value worked out at 13% in data set [8] (setting [20]); 0% in [8] (setting [21]); 13% in data set [8] (setting [23]); 15% in data set [8] (setting [24]); 33% in data set [8] (setting [25]); 15% in data set [8] (setting [27]). For the same molecule, the “% visual injury, Obs” value in data set [9] (setting [20]), in [9] (setting [21]), in data set [9] (setting [23]), in data set [9] (setting [24]), in [9] (setting [25]) and in data set [9] (setting [27]) was 0% throughout. Further, the “% visual injury, Obs” value in data set [10] (setting [20]) worked out at 8%; in data set [10] (setting [21]), 0%; in data set [10] (setting [23]) it was 8%; in data set [10] (setting [24]), 0%; in data set [10] (setting [25]) it was 0%; in data set [10] (setting [27]), 0%. Further, the “% visual injury, Obs” value was found to be 10% in data set [11] (setting [22]); 18% in data set [11] (setting [26]); 100% in [12] (setting [22]); 97% in data set [12] (setting [26]); 0% in data set [13] (setting [22]); 0% in data set [13] (setting [26]). In addition, the “% visual injury, Obs” value was determined as 73% in [14] (setting [22]); 78% in [14] (setting [26]); 45% in data set [15] (setting [22]); 25% in [15] (setting [26]); 10% in data set [16] (setting [21]); 23% in [16] (setting [22]). The “% visual injury, Obs” value came out at 23% in data set [16] (setting [25]); 20% in data set [16] (setting [26]); 70% in [17] (setting [22]); 70% in data set [17] (setting [26]); 93% in data set [18] (setting [22]); 95% in data set [18] (setting [26]).

Regarding `CCN(C(=O)SCc1ccccc1)C(C)C(C)C` (stereo not drawn) [Esprocarb, esprocarb, reference compound], the “% visual injury, Obs” value turned out to be 0% in [1] (setting [28]); 0% in data set [3] (setting [28]); 0% in data set [4] (setting [28]); 0% in data set [5] (setting [28]); 15% in data set [6] (setting [28]); 0% in data set [7] (setting [28]). The “% visual injury, Obs” value worked out at 5% in data set [8] (setting [28]) and 0% in [16] (setting [28]).

Regarding `CCCN(CCC)C(=O)SCc1ccccc1` [Prosulfocarb, prosulfocarb, reference compound], the “% visual injury, Obs” value in data set [1] (setting [29]), in [2] (setting [29]), in [5] (setting [29]), in data set [7] (setting [29]), in [11] (setting [29]) and in data set [12] (setting [29]) was 0% each time. Also, the “% visual injury, Obs” value in data set [13] (setting [29]), in data set [14] (setting [29]), in data set [15] (setting [29]), in [16] (setting [29]), in [17] (setting [29]) and in data set [18] (setting [29]) was 0% in each case.

For the molecule `CCN(CC)C(=O)SCc1ccc(Cl)cc1` [Thiobencarb, thiobencarb, reference compound], the “% visual injury, Obs” value in data set [1] (setting [30]) is recorded as 10%; in data set [2] (setting [30]), 0%; in data set [3] (setting [30]) it was 5%; in [4] (setting [30]) it was 0%; in data set [5] (setting [30]), 0%; in [6] (setting [30]) it was 10%. Also, the “% visual injury, Obs” value in data set [7] (setting [30]) is given as 0%; in [8] (setting [30]), 15%.
